In US11771730B2, “Combination of Rhodiola and Astragalus for the treatment of neurodegenerative diseases” (HUMAN BY NATURE, priority 2018, dated 2023):

Tests used:
[1] = tested on: differentiated SH-SY5Y (cells) exposed to Aftin-5; test: Curative test, Alzheimer model induced by Aftin-5 (10 μM): neurite length and cell counts; assay type: cell-based, human; conditions: 10 μM Aftin-5 for 48 hours
Protocol: All tests were performed in three technical replicates using 96-well microplates. After inoculation, SH-SY5Y cells were differentiated by exposure to retinoic acid (10 μM) for 4 days.
After each test, the cells were fixed using a mixture of methanol and acetone at room temperature for 5 minutes, before staining the nuclei with Hoechst and immunostaining the B3 tubulin (secondary antibody conjugated to an Alexa 488 fluorochrome).
Models of neurodegenerative diseases can be established in the laboratory using differentiated neuronal cell lines. Using chemical inducers (Aftin-5, in this case), a model of Alzheimer's disease can be obtained with the human neuroblastoma cell line SH-SY5Y. The neuroprotective and curative properties of the combination of extracts are evaluated following neurotoxic aggression by counting neurons and measuring the length of neurites.
The cells were exposed for 2 days with 10 μM of Aftin-5 alone. […] After fixation and labeling, neurite outgrowth and cell counts were evaluated using MetaXpress (Molecular Devices).
The images were obtained using an ImageXpress® Micro XLS (Molecular Devices) automated microscope with a 20× objective. […] Four fields per well were recorded and analyzed individually.
The images were analyzed using MetaXpress (Molecular Devices) software.

[2] = tested on: DNA repair systems in HepG2 cells; test: DNA repair (Excision/Resynthesis, BER and NER) on lesion plasmid chip with extracts of treated HepG2 cells; assay type: cell-based; conditions: EMS alone

| Compound | neurite length compared to the control (inducer alone) [1] | effect of genotoxic on repair of photoproducts (CPD-64), Nucleotide Excision Repair (NER) [2] | effect of genotoxic on Basic Excision Repair (BER) ([2]; at least at the highest concentration tested (1 mM)) |
| --- | --- | --- | --- |
| CC[C@H](CO)Nc1nc(N(C)c2ccccc2)c2ncn(C(C)C)c2n1 [Aftin-5] | significant reduction in neurite length |  |  |
| CCOS(C)(=O)=O [EMS, ethyl methane sulfonate] |  | not affected | exclusively stimulates Basic Excision Repair (BER) |
